EP0868914B1, “USE OF A FLAVONOID-CONTAINING EXTRACT OF THE PLANT EUPHORBIA PROSTRATA IN THE MANUFACTURE OF A MEDICAMENT FOR THE TREATMENT OF AN ANORECTIC OR COLONIC DISEASE” (PANACEA BIOTEC LIMITED, priority 1997, dated 1998)
Marks after values point to notes of the source that are not given here.

What was measured:
[1] = system: croton oil-induced oedema in mice ears; test: Croton oil ear test (oedema), topical; settings: for Activity Ratio on Molar basis: Indomethacin = 1; for ID50 / ID50 (column head printed: Activity Ratio): croton oil ear test in mice, Italian institute data
[2] = system: Carrageenan-induced Pedal Oedema; test: Carrageenan-induced pedal oedema in rats (oral extract, intraperitoneal indomethacin); type: in vivo; settings: for Oedema + SEM (%): intraperitoneal
[3] = system: Carrageenan-induced Mice Paw Oedema; test: Carrageenan-induced paw oedema in mice, topical application; type: in vivo; settings: topical Indomethacin
Method: The duration of action of topical preparation was determined by studying the effects of different concentrations of the drug on oedema over a period of 8 hr. As evident from the Table 3, the peak inhibition was observed after 3-4 hours of carrageenan injection begining at 2 hr for the extract at lower concentrations (0.5-2.0%) and 1 hr. at 4 % concentration.

[4] = system: granulocyte infiltration (MPO activity); test: Granulocyte infiltration (MPO activity) in the croton oil ear test; type: in vivo, mice; settings: One unit = 1 nMol/min. of tetraguaiacol formed at 25°C
[5] = 1.26µMol, 6 hours after treatment
[6] = 1.26µMol, 18 hours after treatment
[7] = 1.26µMol, 30 hours after treatment

O=c1cc(-c2ccc(O)cc2)oc2cc(O[C@@H]3O[C@H](CO)[C@@H](O)[C@H](O)[C@H]3O)cc(O)c12 [Apigenin-7-glucoside] was tested, and the “Activity Ratio on Molar basis” value [1] was 0.32, the ID50 [1] was 175 µg/ear and the “ID50 (column head printed: Activity Ratio)” value [1] was 0.404 µmol/ear.

In the case of O=c1c(O)c(-c2ccc(O)c(O)c2)oc2cc(O)cc(O)c12 [Quercetin], the “Activity Ratio on Molar basis” value [1] is reported as 0.65, the ID50 [1] is reported as 60.3 µg/ear and the “ID50 (column head printed: Activity Ratio)” value [1] is reported as 0.200 µmol/ear.

C[C@@H]1O[C@@H](OC[C@H]2O[C@@H](Oc3c(-c4ccc(O)c(O)c4)oc4cc(O)cc(O)c4c3=O)[C@H](O)[C@@H](O)[C@@H]2O)[C@H](O)[C@H](O)[C@H]1O [Rutin] was tested, and the “Activity Ratio on Molar basis” value [1] was 0.28, the ID50 [1] was 282 µg/ear and the “ID50 (column head printed: Activity Ratio)” value [1] was 0.462 µmol/ear.

With COc1ccc2c(c1)c(CC(=O)O)c(C)n2C(=O)c1ccc(Cl)cc1 [Indomethacin] the inhibition of oedema ([2]; 1mg/kg, i.p.) was 74%, the “Oedema + SEM (%)” value ([2]; 0.5 mg/Kg, +30 min) was 13.6±4.0% and the “Oedema + SEM (%)” value ([2]; 0.5 mg/Kg, +60 min) was 18.9±4.0%. For the same compound, the “Oedema + SEM (%)” value ([2]; 0.5 mg/Kg, +120 min) was 28.8±4.2%, the “Oedema + SEM (%)” value ([2]; 1.0 mg/Kg, +30 min) was 9.3±2.3% and the “Oedema + SEM (%)” value ([2]; 1.0 mg/Kg, +60 min) was 12.3±2.2%. For the same compound, the “Oedema + SEM (%)” value ([2]; 1.0 mg/Kg, +120 min) was 16.4±1.6%, the “Oedema + SEM (%)” value ([2]; 2.0 mg/Kg, +30 min) was 8.2±1.5% and the “Oedema + SEM (%)” value ([2]; 2.0 mg/Kg, +60 min) was 12.8±1.8%. For the same compound, the “inhibition of Carrageenan-induced Mice Paw Oedema” value ([3]; Dose 1.00 %, +60 m) was 18.2** %, the “inhibition of Carrageenan-induced Mice Paw Oedema” value ([3]; Dose 1.00 %, +120 m) was 24.0** % and the “inhibition of Carrageenan-induced Mice Paw Oedema” value ([3]; Dose 1.00 %, +180 m) was 29.0** %. The “inhibition of Carrageenan-induced Mice Paw Oedema” value ([3]; Dose 1.00 %, +240 m) was 21.2** %, the “inhibition of Carrageenan-induced Mice Paw Oedema” value ([3]; Dose 1.00 %, +360 m) was 9.6** % and the “inhibition of Carrageenan-induced Mice Paw Oedema” value ([3]; Dose 1.00 %, +480 m) was 4.6%. The “inhibition of Carrageenan-induced Mice Paw Oedema” value ([3]; Dose 2.00 %, +60 m) was 24.2* %, the “inhibition of Carrageenan-induced Mice Paw Oedema” value ([3]; Dose 2.00 %, +120 m) was 26.0* % and the “inhibition of Carrageenan-induced Mice Paw Oedema” value ([3]; Dose 2.00 %, +180 m) was 41.9*** %. For the same compound, the “inhibition of Carrageenan-induced Mice Paw Oedema” value ([3]; Dose 2.00 %, +180 m, listed as indomethacin) was 41.9%, the “inhibition of Carrageenan-induced Mice Paw Oedema” value ([3]; Dose 2.00 %, +240 m) was 36.4* % and the “inhibition of Carrageenan-induced Mice Paw Oedema” value ([3]; Dose 2.00 %, +360 m) was 11.5* %. For the same compound, the “inhibition of Carrageenan-induced Mice Paw Oedema” value ([3]; Dose 2.00 %, +480 m) was 10.6%, the “Effect on granulocyte infiltration (MPO activity)” value (“Effect on granulocyte infiltration” for short) [4, 5] was 0.0±0.1 unit and the “Effect on granulocyte infiltration” value [4, 6] was 10.0±1.6 unit. The “Effect on granulocyte infiltration” value [4, 7] was 6.8±3.4 unit, the “Effect on Oedema Development” value [1, 5] was 0.0 ± 0.1 mg and the “Effect on Oedema Development” value [1, 6] was 3.1 ± 0.4 mg. For the same compound, the “Effect on Oedema Development” value [1, 7] was 0.5 ± 0.1 mg, the “antiinflammatory activity (oedema) in words” value ([1]; 18 hours after treatment) was “lose their antiinflammatory activity” and the “Activity Ratio on Molar basis” value [1] was 1.00. For the same compound, the ID50 [1] was 46.1 µg/ear and the “ID50 (column head printed: Activity Ratio)” value [1] was 0.126 µmol/ear.

With C[C@]12CCC(=O)C=C1CC[C@@H]1[C@@H]2[C@@H](O)C[C@@]2(C)[C@H]1CC[C@]2(O)C(=O)CO [Hydrocortisone] the “Effect on granulocyte infiltration” value ([4]; 0.41µMol, 6 hours after treatment) was 0.0±0.2 unit, the “Effect on granulocyte infiltration” value ([4]; 0.41µMol, 18 hours after treatment) was 6.9±2.1 unit and the “Effect on granulocyte infiltration” value ([4]; 0.41µMol, 30 hours after treatment) was 8.2±2.4 unit. For the same compound, the “Effect on Oedema Development” value ([1]; 0.41 µMol, 6 hours after treatment) was 0.5 ± 0.2 mg, the “Effect on Oedema Development” value ([1]; 0.41 µMol, 18 hours after treatment) was 0.7 ± 0.1 mg and the “Effect on Oedema Development” value ([1]; 0.41 µMol, 30 hours after treatment) was 0.7 ± 0.1 mg. The “antiinflammatory activity (oedema) in words” value ([1]; 18 hours after treatment) was “maintain their effect to a certain extent”, the “Activity Ratio on Molar basis” value [1] was 14.00 and the ID50 [1] was 3.3 µg/ear. The “ID50 (column head printed: Activity Ratio)” value [1] was 0.009 µmol/ear.
